In one data set the test system is MDA-MB-231 tumor. Put plainly: Tumor size and weight in MDA-MB-231 tumor model mice after tail vein injection. The data set is classed as in vivo, BALB/c nude mice. The procedure:
To prepare the animal tumor model, MDA-MB-231 cells were inoculated subcutaneously in the flank of female BALB/c nu/nu (athymic nude) mice (5×10^6 cells per mouse) When the tumor reached a mean volume of 100 mm^3 in the mice were used for the following Experimental Examples.
First, the tumor model mice prepared by transplanting MDA-MB-231 tumor cells to BALB/c nude mice were randomly divided into seven groups (n=10 per group) and injected with 200 μL of 0.5 mg/kg DOX, mwCNT, DOX-mwCNT in PBS, or pure PBS (negative control) in the tail vein. Subjects were weighed at 2, 9, and 16 days. Body weight and tumor sizes were measured twice a week for 21 days, and tumor volumes were calculated by the formula: V(volume)=X(length)×D(width)^2/2.
Twenty one day after the tail vein injection, the changes in tumor size of sacrificed animals were determined.
Furthermore, after the administration of the anticancer agent, tumor tissues taken from the sacrificed animals were weighed. In this case, in order to compare the significance of each group, Prism (GraphPad Software, Inc.) was used for statistical analysis with one-way ANOVA (analysis of variance) (** P<0.01, *** P<0.001).

Another data set concerns MDA-MB-231 tumor tissue. The experiment in a line: Histopathological observation (Haematoxylin-Eosin) of tumor tissues. The data set is classed as in vivo, BALB/c nude mice. The note with it: H&E; doxorubicin 0.5 and 5 mg/kg, DOX-mwCNT-25 0.5 mg/kg; versus control. Here is the method:
Then, the present inventors anesthetized the mice with ethyl ether, sacrificed them and collected tumor tissues therefrom. After measuring the weight of the collected tumor tissues, the tumor tissues were fixed for 24 hours in 10% formalin, washed with water and dehydrated and dipped in 70, 80, 90, 95 and 100% of ethanol, serially. The tissues were transparentized with xylene and embedded in paraffin. And then the embedded tissues were sliced at a thickness of 5 um, placed on glass slides.

The next data set concerns MDA-MB-231 cells. The experiment in a line: Efflux from cells (fluorescence microscopy). The note with it: 100 ng/ml for 2 h, then drug-free medium. The class given is cell-based.
Data set [1] is described as follows: Particle size by transmission electron microscope. The note with it: in PBS.
The next data set relates to MRP-1 protein. Put plainly: MRP-1 protein western blot. The data set is classed as cell-based. The note with it: 100 ng/ml for 2 h; 24 hours after the treatment. Here is the method: (§1) MDA-MB-231 breast cancer cells (4×10^5 cells/well) known to overexpress MRP1 were plated in a 6 well plate and 100 ng/ml of doxorubicin and DOX-mwCNT were treated to the cells for 2 h, respectively. Carbon nanotube as a control was treated with a concentration of 348 ng/ml for 2 h.
To confirm the above result in protein level, the present inventors performed western bot analysis of the MRP-1 protein, there was a significant difference in protein expression of MRP-1 between doxorubicin- and DOX-mwCNT-25-treating groups (FIG. 30). […] Despite of previous studies reporting that Mdr-1 and Mrp-1 genes mediate drug resistance of MDA-MB-231, Mdr-1 was hardly detected in this experiment due to short drug exposure time (2 hours).
A general note: Immunoblotting shows a protein as a band on a membrane.

The next data set has as its system Mrp-1. Put plainly: Mrp-1 mRNA expression by RT-PCR. The data set is classed as cell-based. The note with it: 100 ng/ml for 2 h; after 6 hours and later. The procedure: as §1
Two hours after treatment, culture mediums were replaced with DMEM medium supplemented with 10% FBS and not containing mwCNT, DOX, and DOX-mwCNT, and the cells were further incubated. Then RNA was isolated from cells after 2, 6, 12, 24, and 36 hours of incubation, respectively and then Mrp-1 mRNA level was analyzed. In this case, TRIZOL reagent (Invitrogen, USA) and chloroform were used for RNA isolation, then the isolated RNA was reacted with same volume of isopropanol for 2 h, quantified and subjected to RT-PCR (reverse transcriptase PCR).

Data set [2] concerns late endosomes in MDA-MB-231 cells. Put plainly: High resolution imaging of doxorubicin and late endosome marker. The class given is cell-based. The note with it: 24 h. Here is the method:
Furthermore, the present inventors performed a high resolution image analysis for 24 h in order to investigate the degradation of uptaken doxorubicin signal by co-staining doxorubicin and late endosome specific marker. […] Therefore, it was understood that late endosomes act as transporters of doxorubicin excreted from nucleus.

A further data set relates to A549 cells. The experiment in a line: MTT assay on lung cancer cells. The data set is classed as cell-based. The note with it: A549, 48 h, 0.086-1.38 μmol/L. Here is the method:
A549 cells (1×10^4 cells/well, CAT: CRL-1658, ATCC) were seeded in a 96-well plate and incubated with DMEM medium supplementing 10% FBS (fetal bovine serum). At this time, the culture was maintained under the condition of 5% of CO2 at 37° C. The cells were cultured for 24 h and mwCNT-COOH, EPI, EPI-EGF, EPI-mwCNT and EPI-EGF-mwCNT were treated to each well with ratios of 0.086, 0.172, 0.345, 0.69, 1.38 μmol/L, respectively and then further cultured for 48 h. And then, drug solutions were removed from the plate, 100 μl of MTT reagent (1 mg/ml, 3-(4,5-dimethylthiazol-2-yl)-2,5-diphenyltetrazolium bromide) was slowly added to each well, and incubated for 1 h at 37° C. Thereafter, 100 μl of DMSO solution per well was added, followed by measuring absorbance at 560 nm using a microplate reader (Model 680, Bio-Rad).
Then, the present inventors treated drugs containing doxorubicin (DOX-EGF, DOX-mwCNT-25, DOX-EGF-mwCNT) to the same lung cancer cell A549. All the condition except drugs were same.
(In general: Tetrazolium assays rely on reduction of a dye to a coloured formazan, in cell work by metabolically active cells.)

The values that follow come from patent US9981042B2, “Carbon nanotube-based anti-cancer agent capable of suppressing drug resistance” (INDUSTRY-ACADEMIC COOPERATION FOUNDATION GYEONGSANG …, priority 2012, dated 2018).

On to `COc1cccc2c1C(=O)c1c(O)c3c(c(O)c1C2=O)C[C@@](O)(C(=O)CO)C[C@@H]3O[C@H]1C[C@H](N)[C@H](O)[C@H](C)O1` [DOX, doxorubicin], for which the “volume and mass of tumors” value in the data set on MDA-MB-231 tumor (0.5 mg/kg, three times I.V. injection, 21 days) was “no notable tumor inhibition”. In addition, the “size of tumor tissue compared to control group” value with MDA-MB-231 tumor (large dose 5 mg/kg) is reported as “decreased significantly”. Besides, the “necrosis / damage of tumor tissue” value in the data set with MDA-MB-231 tumor tissue is “increased necrosis”. In addition, in the data set on MDA-MB-231 cells, the “time to complete excretion from cells” value is recorded as 6˜12 hours. The “particle size (length variation)” value in data set [1] is recorded as 0-40 nm. Also, the “protein expression of MRP-1” value in the data set on MRP-1 protein was “weak band”. Besides, the “expression of Mrp-1 gene” value in the data set on Mrp-1 was “decreased”. Also, the late endosome signal entry in data set [2] is recorded as “few late endosomes were observed”.
Take `COc1cccc2c1C(=O)c1c(O)c3c(c(O)c1C2=O)C[C@@](O)(C(=O)CO)C[C@@H]3O[C@H]1C[C@H](N)[C@@H](O)[C@H](C)O1` [EPI, epirubicin]: the “viability compared to group treated with only mwCNT-COOH” value in the data set on A549 cells was “lower viability”.
On the same count and under the same terms, then “EPI-EGF (NSDSECPLSHDGYCLHDGVCMYIEALDKYACNCVVGYIGERCQYRDLKWWELR; Epidermal growth factor epirubicin conjugate; UniProt P01133 971-1023, looked up)”, with “lower viability”.
